Tests used:
Format in all cases: functional
TK-10 = assay: Cytotoxicity against human TK10 cells assessed as cell growth at 10^-7 M after 48 hrs by SRB assay relative to control; details: TK-10, 48 h, read-out: Activity
T47D = assay: Cytotoxicity against human T47D cells assessed as cell growth at 10^-7 M after 48 hrs by SRB assay relative to control; details: read-out: Activity
CAKI-1 = assay: Cytotoxicity against human Caki1 cells assessed as cell growth at 10^-7 M after 48 hrs by SRB assay relative to control; details: CAKI-1, 48 h, read-out: Activity
[1] = Cytotoxicity against human OVCAR8 cells assessed as cell growth at 10^-8 M after 48 hrs by SRB assay relative to control; details: OVCAR-8, 48 h, read-out: Activity
[2] = Cytotoxicity against human HCT116 cells assessed as cell growth at 10^-7 M after 48 hrs by SRB assay relative to control; details: HCT-116, 48 h, read-out: Activity
SK-MEL-28 [3] = assay: Cytotoxicity against human SK-MEL-28 cells assessed as cell growth at 10^-4 M after 48 hrs by SRB assay relative to control; details: SK-MEL-28, 48 h, read-out: Activity
[4] = Cytotoxicity against human HCT15 cells assessed as cell growth at 10^-6 M after 48 hrs by SRB assay relative to control; details: HCT-15, 48 h, read-out: Activity
MDA-MB-468 = assay: Cytotoxicity against human MDA-MB-468 cells assessed as cell growth at 10^-6 M after 48 hrs by SRB assay relative to control; details: MDA-MB-468, 48 h, read-out: Activity
[5] = Cytotoxicity against human EKVX cells assessed as cell growth at 10^-8 M after 48 hrs by SRB assay relative to control; details: read-out: Activity
LOX IMVI = assay: Cytotoxicity against human LOXIMVI cells assessed as cell growth at 10^-8 M after 48 hrs by SRB assay relative to control; details: read-out: Activity
SF-268 [6] = assay: Cytotoxicity against human SF268 cells assessed as cell growth at 10^-8 M after 48 hrs by SRB assay relative to control; details: SF-268, 48 h, read-out: Activity
IGROV-1 = assay: Cytotoxicity against human IGROV1 cells after 48 hrs by SRB assay; details: IGROV-1, 48 h
786-0 [7] = assay: Cytotoxicity against human 786-0 cells assessed as cell growth at 10^-7 M after 48 hrs by SRB assay relative to control; details: 786-0, 48 h, read-out: Activity
Malme-3M = assay: Cytotoxicity against human MALME-3M cells after 48 hrs by SRB assay
[8] = Cytotoxicity against human HCT15 cells assessed as cell growth at 10^-7 M after 48 hrs by SRB assay relative to control; details: HCT-15, 48 h, read-out: Activity
KM12 = assay: Cytotoxicity against human KM12 cells after 48 hrs by SRB assay; details: KM12, 48 h
SF-268 [9] = assay: Cytotoxicity against human SF268 cells assessed as cell growth at 10^-7 M after 48 hrs by SRB assay relative to control; details: SF-268, 48 h, read-out: Activity
SNB-19 = assay: Cytotoxicity against human SNB19 cells assessed as cell growth at 10^-8 M after 48 hrs by SRB assay relative to control; details: SNB-19, 48 h, read-out: Activity
A498 [10] = assay: Cytotoxicity against human A498 cells assessed as cell growth at 10^-4 M after 48 hrs by SRB assay relative to control; details: A498, 48 h, read-out: Activity
[11] = Cytotoxicity against human UACC62 cells assessed as cell growth at 10^-7 M after 48 hrs by SRB assay relative to control; details: UACC-62, 48 h, read-out: Activity
[12] = Cytotoxicity against human OVCAR4 cells assessed as cell growth at 10^-8 M after 48 hrs by SRB assay relative to control; details: OVCAR-4, 48 h, read-out: Activity
HL-60(TB) = assay: Cytotoxicity against human HL-60(TB) cells after 48 hrs by SRB assay; details: HL-60, 48 h
MDA-MB-231 = assay: Cytotoxicity against human MDA-MB-231 cells after 48 hrs by SRB assay; details: MDA-MB-231, 48 h
SK-MEL-28 [13] = assay: Cytotoxicity against human SK-MEL-28 cells after 48 hrs by SRB assay; details: SK-MEL-28, 48 h
NCI-H460 = assay: Cytotoxicity against human NCI-H460 cells assessed as cell growth at 10^-7 M after 48 hrs by SRB assay relative to control; details: NCI-H460, 48 h, read-out: Activity
A498 [14] = assay: Cytotoxicity against human A498 cells after 48 hrs by SRB assay; details: A498, 48 h
SF-295 = assay: Cytotoxicity against human SF295 cells assessed as cell growth at 10^-8 M after 48 hrs by SRB assay relative to control; details: SF-295, 48 h, read-out: Activity
[15] = Cytotoxicity against human PC3 cells after 48 hrs by SRB assay; details: PC-3, 48 h
SK-MEL-2 = assay: Cytotoxicity against human SK-MEL-2 cells assessed as cell growth at 10^-8 M after 48 hrs by SRB assay relative to control; details: SK-MEL-2, 48 h, read-out: Activity
786-0 [16] = assay: Cytotoxicity against human 786-0 cells assessed as cell growth at 10^-8 M after 48 hrs by SRB assay relative to control; details: 786-0, 48 h, read-out: Activity
[17] = Cytotoxicity against human SKOV3 cells after 48 hrs by SRB assay; details: SK-OV-3, 48 h
ACHN = assay: Cytotoxicity against human ACHN cells assessed as cell growth at 10^-7 M after 48 hrs by SRB assay relative to control; details: read-out: Activity
HT-29 = assay: Cytotoxicity against human HT-29 cells assessed as cell growth at 10^-6 M after 48 hrs by SRB assay relative to control; details: HT-29, 48 h, read-out: Activity
SF-539 = assay: Cytotoxicity against human SF539 cells assessed as cell growth at 10^-6 M after 48 hrs by SRB assay relative to control; details: SF-539, 48 h, read-out: Activity
SK-MEL-5 = assay: Cytotoxicity against human SK-MEL-5 cells assessed as cell growth at 10^-4 M after 48 hrs by SRB assay relative to control; details: SK-MEL-5, 48 h, read-out: Activity
[18] = read-out: LC50 (the source's name)

SMILES: COc1ccc(CCN2COc3c([C@@H](C)CCC=C(C)C)ccc(C)c3C2)cc1OC
- growth at 0.1 µM (TK-10): 79%
- growth at 0.1 µM (T47D): 69%
- growth at 0.1 µM (CAKI-1): 91%
- growth at 0.01 µM [1]: 86%
- growth at 0.1 µM [2]: 92%
- growth at 100 µM (SK-MEL-28 [3]): -95%
- growth at 1 µM [4]: 90%
- growth at 1 µM (MDA-MB-468): 62%
- growth at 0.01 µM [5]: 93%
- growth at 0.01 µM (LOX IMVI): 87%
- growth at 0.01 µM (SF-268 [6]): 85%
- GI50 (IGROV-1): 1.08 µM
- LC50 (concentration killing 50% of cells) (IGROV-1): 12.7 µM
- TGI (IGROV-1): 3.52 µM
- growth at 0.1 µM (786-0 [7]): 65%
- GI50 (Malme-3M): 1.53 µM
- TGI (Malme-3M): 3.18 µM
- CC50 (Malme-3M; [18]): 6.61 µM
- growth at 0.1 µM [8]: 86%
- GI50 (KM12): 2.86 µM
- TGI (KM12): 9.64 µM
- CC50 (KM12; [18]): 46.1 µM
- growth at 0.1 µM (SF-268 [9]): 79%
- growth at 0.01 µM (SNB-19): 99%
- growth at 100 µM (A498 [10]): -93%
- growth at 0.1 µM [11]: 90%
- growth at 0.01 µM [12]: 96%
- GI50 (HL-60(TB)): 4.11 µM
- TGI (HL-60(TB)): 60.9 µM
- CC50 (HL-60(TB); [18]): > 100 µM
- GI50 (MDA-MB-231): 2.76 µM
- LC50 (MDA-MB-231): 34.5 µM
- TGI (MDA-MB-231): 9.37 µM
- GI50 (SK-MEL-28 [13]): 2.21 µM
- TGI (SK-MEL-28 [13]): 4.94 µM
- CC50 (SK-MEL-28 [13]; [18]): 13.3 µM
- growth at 0.1 µM (NCI-H460): 100%
- GI50 (A498 [14]): 1.96 µM
- TGI (A498 [14]): 11.9 µM
- CC50 (A498 [14]; [18]): 37.1 µM
- growth at 0.01 µM (SF-295): 81%
- GI50 [15]: 1.95 µM
- LC50 [15]: 49.3 µM
- TGI [15]: 5.83 µM
- growth at 0.01 µM (SK-MEL-2): 93%
- growth at 0.01 µM (786-0 [16]): 101%
- GI50 [17]: 11.8 µM
- LC50 (concentration killing 50% of cells) [17]: 81.8 µM
- TGI [17]: 31.1 µM
- growth at 0.1 µM (ACHN): 94%
- growth at 1 µM (HT-29): 91%
- growth at 1 µM (SF-539): 96%
- growth at 100 µM (SK-MEL-5): -100%
